Here are results for one compound from patent US10426765B2, “Pharmaceutical composition containing nicotinic acid and/or nicotinamide and/or tryptophan for positively influencing the intestinal microbiota” (CONARIS RESEARCH INSTITUTE AG, priority 2012, dated 2019).

One data set deals with Crohn's disease. The data set can be described thus: Crohn's disease activity index (CDAI) in patients treated with nicotinamide (Example 2). It is filed as in vivo, human. The settings on record: three Crohn's disease patients. An excerpt: A value of CDAI<150 is equivalent to remission.
In data set [1] the test system is DSS colitis in ACE2-deficient mice. The experiment in a line: DSS colitis in ACE2-deficient mice given nicotinamide or tryptophan dipeptides (Example 1). It is filed as in vivo. The settings on record: prophylactic and permanent administration. An excerpt:
Top row: histopathology of the colon (haematoxylin eosin staining on day 10 after DSS administration; bar: 100 μm (a)), weight loss in percent (b) and diarrhea score (c) of DSS-challenged ACE2-normal (ACE2+/y) and ACE2-deficient (ACE2-/y) mice which were given vehicle or nicotinamide (NAM) in the drinking water. The NAM administration began 3 days before the DSS administration. Bottom row: histopathology of the colon (haematoxylin eosin staining on day 7 after DSS challenge; bar: 100 μm (d)), weight loss in percent (e) and damage of the crypts of the colon (f) in DSS-challenged ACE2-normal (ACE2+/y) and ACE2-deficient (ACE2-/y) mice which received normal diet (control) or a tryptophan-dipeptide diet (Trp+). New and findings unpublished at the time the priority application was filed, since published as Hashimoto et al. (Nature 2012, 487:477), support the teachings of the present invention and are briefly described here for the purpose of illustration: It is known that the expression of the transporter for neutral amino acids B^0 AT1 (which transports tryptophan) on the surface of intestinal epithelial cells is bound to the presence of the angiotensin converting enzyme 2 (ACE2) (Kowalczuk et al. 2008, FASEB J. 22:2880; Camargo et al. 2009, Gastroenterology 136:872). […]

The conditions of data set [2]: cited from earlier work.

On to `NC(=O)c1cccnc1` [nicotinamide], for which the “response of Crohn's disease activity index (CDAI)” value in the data set with Crohn's disease (conventionally formulated nicotinamide 2×600 mg daily for 4 weeks) is given as “clear response”. Moreover, the “remission (CDAI<150) within the therapy period” value in the data set on Crohn's disease (nicotinamide 2×600 mg daily for 4 weeks) is reported as “two of them achieved the remission”. The “intensification of DSS-induced intestinal inflammation in Ace2-/y mice” value in data set [1] is “reduce this effect”. Also, the water solubility entry in data set [2] is reported as “high water solubility”.
